In patent publication US20260262643A1, “HERBICIDAL BENZOXAZINES” (FMC CORPORATION, priority 2022, published 2026):

How the values were obtained:
barnyardgrass [1] = test: Test A preemergence; type: in vivo, Echinochloa crusgalli; conditions: 1000 g ai/ha, 0 to 100 scale (0 no effect, 100 complete control), 10 days
Outline: (§1)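 Seeds in loam–sand blend received a directed preemergence soil spray of compound in non-phytotoxic solvent with surfactant; postemergence plants (2–10 cm, one- to two-leaf stage) were sprayed with the same formulation. After 10 days in greenhouse, injury was rated visually versus untreated controls, 0 (no effect) to 100 (complete control).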

foxtail, giant [2] = test: Test A preemergence; type: in vivo, Setaria faberi; conditions: 1000 g ai/ha, 0 to 100 scale (0 no effect, 100 complete control), 10 days
Outline: as §1

kochia [3] = test: Test A preemergence; type: in vivo, Bassia scoparia; conditions: 1000 g ai/ha, 0 to 100 scale (0 no effect, 100 complete control), 10 days
Outline: as §1

Pigweed, Redroot [4] = test: Test A preemergence; type: in vivo, Amaranthus retroflexus; conditions: 1000 g ai/ha, 0 to 100 scale (0 no effect, 100 complete control), 10 days
Outline: as §1

ragweed [5] = test: Test A preemergence; type: in vivo, Ambrosia artemisiifolia; conditions: 1000 g ai/ha, 0 to 100 scale (0 no effect, 100 complete control), 10 days
Outline: as §1

ryegrass, Italian [6] = test: Test A preemergence; type: in vivo, Lolium multiflorum; conditions: 1000 g ai/ha, 0 to 100 scale (0 no effect, 100 complete control), 10 days
Outline: as §1

barnyardgrass [7] = test: Test A postemergence; type: in vivo, Echinochloa crusgalli; conditions: 1000 g ai/ha, Postemergence; 0 to 100 scale
Outline: as §1

blackgrass = test: Test A postemergence; type: in vivo, Alopecurus myosuroides; conditions: 1000 g ai/ha, Postemergence, 0 to 100 scale
Outline: as §1

corn = test: Test A postemergence; type: in vivo, Zea mays; conditions: 1000 g ai/ha, Postemergence, 0 to 100 scale
Outline: as §1

foxtail, giant [8] = test: Test A postemergence; type: in vivo, Setaria faberi; conditions: 1000 g ai/ha, Postemergence, 0 to 100 scale
Outline: as §1

kochia [9] = test: Test A postemergence; type: in vivo, Bassia scoparia; conditions: 1000 g ai/ha, Postemergence, 0 to 100 scale
Outline: as §1

Pigweed, Redroot [10] = test: Test A postemergence; type: in vivo, Amaranthus retroflexus; conditions: 1000 g ai/ha, Postemergence; 0 to 100 scale
Outline: as §1

ragweed [11] = test: Test A postemergence; type: in vivo, Ambrosia artemisiifolia; conditions: 1000 g ai/ha, Postemergence, 0 to 100 scale
Outline: as §1

ryegrass, Italian [12] = test: Test A postemergence; type: in vivo, Lolium multiflorum; conditions: 1000 g ai/ha, Postemergence, 0 to 100 scale
Outline: as §1

wheat = test: Test A postemergence; type: in vivo, Triticum aestivum; conditions: 1000 g ai/ha, Postemergence, 0 to 100 scale
Outline: as §1

galium = test: Test A postemergence; type: in vivo, Galium aparine; conditions: 1000 g ai/ha, Postemergence, 0 to 100 scale
Outline: as §1

barnyardgrass [13] = test: Test B flooded paddy test; type: in vivo, Echinochloa crus-galli; conditions: 250 g ai/ha, Flood, 13 days, 0 to 100 scale (0 no effect, 100 complete control)
Outline: (§2)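 Visual scores from 0 (no effect) to 100 (complete kill) were assigned 13 days after treatment by comparison with controls. Seedlings had been treated at two leaves by adding compound to floodwater standing 3 cm deep, kept at that level in the greenhouse.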

ducksalad = test: Test B flooded paddy test; type: in vivo, Heteranthera limosa; conditions: 250 g ai/ha, Flood, 13 days, 0 to 100 scale (0 no effect, 100 complete control)
Outline: as §2

rice = test: Test B flooded paddy test; type: in vivo, Oryza sativa; conditions: 250 g ai/ha, Flood, 13 days, 0 to 100 scale (0 no effect, 100 complete control)
Outline: as §2

sedge, umbrella = test: Test B flooded paddy test; type: in vivo, Cyperus difformis; conditions: 250 g ai/ha, Flood, 13 days, 0 to 100 scale (0 no effect, 100 complete control)
Outline: as §2

O=C(c1cccc(-n2cncn2)c1)N1CC(C2CC2)Oc2c(Cl)cccc21 (stereo not shown) [Compound 22, (8-Chloro-2-cyclopropyl-2,3-dihydro-4H-1,4-benzoxazin-4-yl)[3-(1H-1,2,4-triazol-1-yl)phenyl]methanone]
Plant response rating, Barnyardgrass (barnyardgrass [1]): 90
pest or weed control at 1000 g/ha (foxtail, giant [2]; Setaria faberi, pre-emergence, 240 h, read-out: Plant response rating, Foxtail, Giant): 90%
pest or weed control at 1000 g/ha (kochia [3]; Bassia scoparia, pre-emergence, 240 h, read-out: Plant response rating, Kochia): 50%
Plant response rating, Pigweed, Redroot (Pigweed, Redroot [4]): 60
pest or weed control at 1000 g/ha (ragweed [5]; Ambrosia artemisiifolia, pre-emergence, 240 h, read-out: Plant response rating, Ragweed): 20%
pest or weed control at 1000 g/ha (ryegrass, Italian [6]; Lolium multiflorum, pre-emergence, 240 h, read-out: Plant response rating, Ryegrass, Italian): 90%
Plant response rating, Barnyardgrass (barnyardgrass [7]): 50
pest or weed control at 1000 g/ha (blackgrass; Alopecurus myosuroides, post-emergence, 240 h, read-out: Plant response rating, Blackgrass): 80%
Corn plant response rating (crop injury, 0 = no effect, 100 = complete kill) at 1000 g/ha (corn; Zea mays, post-emergence, 240 h): 70%
pest or weed control at 1000 g/ha (foxtail, giant [8]; Setaria faberi, post-emergence, 240 h, read-out: Plant response rating, Foxtail, Giant): 80%
pest or weed control at 1000 g/ha (kochia [9]; Bassia scoparia, post-emergence, 240 h, read-out: Plant response rating, Kochia): 70%
Plant response rating, Pigweed, Redroot (Pigweed, Redroot [10]): 60
pest or weed control at 1000 g/ha (ragweed [11]; Ambrosia artemisiifolia, post-emergence, 240 h, read-out: Plant response rating, Ragweed): 50%
pest or weed control at 1000 g/ha (ryegrass, Italian [12]; Lolium multiflorum, post-emergence, 240 h, read-out: Plant response rating, Ryegrass, Italian): 60%
plant injury at 1000 g/ha (wheat; Triticum aestivum, post-emergence, 240 h, read-out: Plant response rating, Wheat): 60%
pest or weed control at 1000 g/ha (galium; Galium, post-emergence, 240 h, read-out: Plant response rating, Galium): 90%
pest or weed control at 250 g/ha (barnyardgrass [13]; Echinochloa crus-galli, 312 h, read-out: Plant response rating, Barnyardgrass): 0%
pest or weed control at 250 g/ha (ducksalad; Heteranthera limosa, 312 h, read-out: Plant response rating, Ducksalad): 0%
plant injury at 250 g/ha (rice; Oryza sativa, 312 h, read-out: Plant response rating, Rice): 0%
pest or weed control at 250 g/ha (sedge, umbrella; Cyperus difformis, 312 h, read-out: Plant response rating, Sedge, Umbrella): 0%

C[C@H]1CN(C(=O)c2cccc(-n3cnnn3)c2)c2cccc(Cl)c2O1 [Compound 115]
Plant response rating, Barnyardgrass (barnyardgrass [1]): 70
Plant response rating, Foxtail, Giant (foxtail, giant [2]): 90
Plant response rating, Kochia (kochia [3]): 40
Plant response rating, Pigweed, Redroot (Pigweed, Redroot [4]): 80
Plant response rating, Ragweed (ragweed [5]): 30
Plant response rating, Ryegrass, Italian (ryegrass, Italian [6]): 90
Plant response rating, Barnyardgrass (barnyardgrass [7]): 50
Plant response rating, Blackgrass (blackgrass): 50
Plant response rating, Corn (corn): 40
Plant response rating, Foxtail, Giant (foxtail, giant [8]): 40
Plant response rating, Kochia (kochia [9]): 0
Plant response rating, Pigweed, Redroot (Pigweed, Redroot [10]): 30
Plant response rating, Ragweed (ragweed [11]): 0
Plant response rating, Ryegrass, Italian (ryegrass, Italian [12]): 60
Plant response rating, Wheat (wheat): 50
Plant response rating, Galium (galium): 70
Plant response rating, Barnyardgrass (barnyardgrass [13]): 0
Plant response rating, Ducksalad (ducksalad): 0
Plant response rating, Rice (rice): 0
Plant response rating, Sedge, Umbrella (sedge, umbrella): 0
